Data reported in patent US20230041859A1, “USE OF TERPENOIDS IN THE TREATMENT OR PREVENTION OF FIBROTIC DISEASES” (Arjil Biotech Holding Company Limited, priority 2021, published 2023).
“And” between values parts separate entries of the source, which are not always exact repeats. Equal values may be shown once.

Legend:
HepG2 cells = assay: Oleic acid-induced steatosis in HepG2 cells (Oil Red O); assay type: cell-based, human; settings: 6 h pre-treatment, then 0.5 mM OA for 24 h, OD 510 nm, at noncytotoxic concentration
Procedure: Oleic acid (OA) induced steatosis in HepG2 cells and may consider an in vitro model for human fatty liver disease. HepG2 cells were treated with different concentrations of oleic acid (OA) to induce steatosis. Intracellular lipid was stained by Oil Red O (ORO), and quantified by colorimetric assay. 0.5 mM OA was chosen for further studies (FIGS. 37 and 38). HepG2 cells were treated with test compounds ([…]) and incubated for 48 h (FIG. 39). HepG2 cells were seeded in 24-well plates and deprived from FBS for 24 h. These cells were then treated with different concentrations of test compounds for 6 h before induced with 0.5 mM OA for 24 h. Cells were gently washed with PBS and fixed using paraformaldehyde at RT, then stained with Oil Red (ORO) solution for 30 min at RT. ORO stain was extracted using pure isopropanol and the optical density was detected at 510 nm (FIG. 40).

[1] = test system: bleomycin-induced pulmonary fibrosis; assay: Bleomycin-induced pulmonary fibrosis in mice: body weight, lung weight, lung index; assay type: in vivo; settings: for Pulmonary index: lung weight/body weight×100
Procedure: Specific pathogen-free ICR mice (males) (body weights 18-22 g) were purchased from the BioLASCO Taiwan Co., Ltd. (Taipei, Taiwan). The animals were housed in Plexiglas cages at a constant temperature of 22±1° C. and a relative humidity of 55±5% on a 12 h dark-light cycle for at least 2 weeks before the experiment. Animals were provided food and water ad libitum. All experimental procedures were performed according to the guidelines of the Institutional Animal Ethics Committee, and the protocol was approved by the Committee for the Purpose of Control and Supervision of Experiments on Animals.
(§1) Mice were divided into fifth groups with 5 animals per group according to body weight: control group, BLM group, BLM+DEX group (7.5 mg/kg), BLM+ACH dosage group (50 mg/kg), and BLM+ACM dosage group (25 mg/kg), BLM+ACH dosage group (50 mg/kg), and BLM+ACM dosage group (25 mg/kg) BLM+AH dosage group (50 mg/kg), and BLM+AM dosage group (25 mg/kg) BLM+BH dosage group (50 mg/kg), and BLM+BM dosage group (25 mg/kg) BLM+CH dosage group (50 mg/kg), and BLM+CM dosage group (25 mg/kg) BLM+DH dosage group (50 mg/kg), and BLM+DM dosage group (25 mg/kg) BLM+EH dosage group (50 mg/kg), and BLM+EM dosage group (25 mg/kg) BLM. Pulmonary fibrosis (PF) was established in mice via a single intratracheal administration of BLM at 7.5 mg/kg mg/kg body weight. Different doses of samples were intragastrically administered daily for 21 days after BLM injury, and DEX was used as the positive control. Control and model groups received an equal volume of vehicle (0.9% NaCl) using the same schedule and route of administration.
Mouse body weights were recorded daily. Mice were sacrificed on the 21th day using excess chloral hydrate hydrochloride anesthesia. Blood was obtained for ELISA analyses, and whole lungs were removed and weighed. The right lungs were fixed in 10% formalin, dehydrated, and embedded in paraffin. The left lungs were used to determine hydroxyproline. The pulmonary coefficient was calculated using the following equation: lung weight/body weight×100% […]
At the end point of the entire experiment, the animal's body weight and lung weight were recorded.

[2] = test system: cisplatin-induced renal injury; assay: Mice model of cisplatin-induced renal injury: serum creatinine (CRE) and BUN; assay type: in vivo; settings: compounds, dose not given, daily for 7 days; p<0.001 vs cisplatin group
Procedure: Determination of biochemical parameters Serum creatinine and serum urea are assessed using colorimetric kits according to manufacturer's instructions. Kits of the former markers are purchased from (HUMAN Diagnostics Worldwide, Magdeburg, Germany) with a chemical analyzer (Roche Diagnostics, Cobas Mira Plus, Rotkreuz, Switzerland).
Seven-to-eight-week-old male C57BL/6 mice are obtained from the BioLASCO Taiwan Co., Ltd. (Taipei, Taiwan). The animals are housed in Plexiglas cages at a constant temperature of 22±1° C. and a relative humidity of 55±5% on a 12 h dark-light cycle for at least 2 weeks before the experiment. Animals are provided food and water ad libitum. All experimental procedures are performed according to the guidelines of the Institutional Animal Ethics Committee, and the protocol is approved by the Committee for the Purpose of Control and Supervision of Experiments on Animals.
Renal fibrosis is induced via multiple injections of low-dose cisplatin. Intraperitoneal injections of cisplatin (5 mg/kg/injection; P4394, Sigma-Aldrich, St Louis, Mo.) are performed at 0, 1, and 3 weeks, for a total of 3 injections. Mice are sacrificed at 6 weeks after the first dose of cisplatin (n=6). To analyze the effects of samples, mice are given daily intraperitoneal injections for 7 days, starting from 4 weeks after first dose of cisplatin, and sacrificed at […] (n=6). […]

[3] = test system: atherosclerosis and liver fibrosis in hypercholesterolemic rabbit; assay: Hypercholesterolemic rabbit model (0.5% cholesterol chow), liver histology scores; assay type: in vivo; settings: 10 mg/kg in 0.5% cholesterol chow; individual liver slides, 12-week study
Procedure: 2 to 3 kg male, New Zealand White rabbits are individually caged and housed in temperature and humidity-controlled rooms. Light-dark cycles are 12 h each. After several days of acclimation, the animals are sequentially assigned to six feeding groups: standard rabbit chow, standard rabbit chow containing 0.5% cholesterol, standard rabbit chow containing both 0.5% cholesterol and 10 mg/kg Lovastatin, standard rabbit chow containing both 0.5% cholesterol and 1% ARH003, standard rabbit chow containing both 0.5% cholesterol and 1% ARH004, standard rabbit chow containing both 0.5% cholesterol and 10 mg/kg AR101-DS2. Except standard rabbit chow, others groups are given standard rabbit chow containing 0.5% cholesterol for 4 weeks (see FIGS. 14-15). The daily feeding amount for each rabbit is 50 g/kg body weight per day. Diets are administered for 8 weeks, after the animals had adjusted to their new environment. At the beginning and end of the 12 weeks study, the rabbits are anesthetized by an intramuscular injection of Zoletil 50 (1 mL/kg) (Virbac Ltd., France), and blood samples are harvested. Finally, the aortas (from aortic arch to the bifurcation of the iliac arteries) and whole livers are collected from the rabbits after they are sacrificed for further histopathological analyses.
(ND) standard rabbit chow, n=5; (HF) standard rabbit chow containing 0.5% cholesterol, n=6; (L) standard rabbit chow containing both 0.5% cholesterol and 10 mg/kg Lovastatin, n=4; (AR003) standard rabbit chow containing both 0.5% cholesterol and 1% ARH003, n=5; (AR004) standard rabbit chow containing both 0.5% cholesterol and 1% ARH004, n=5; (AR101-DS2) standard rabbit chow containing both 0.5% cholesterol and 10 mg/kg AR101-DS2, n=5; The daily feeding amount for each rabbit is 50 g/kg body weight per day.
The rabbit liver tissues (shown in FIG. 29) are perfused with normal saline and fixed in 10% (v/v) formalin-neutralized solution (J.T. Baker, Inc., USA) for 24 hr. […] Briefly, the slices are washed with pure water for 1 min to remove the OCT compound, washed with 50% (v/v) ethanol for 30 sec, and then stained with 2% (w/v) Sudan IV for 1 hr. After further washing with 50% (v/v) ethanol and pure water for 2 min, the slices are counterstained with hematoxylin. Photographs shown in FIG. 30 are acquired using a microscope equipped with a 10-fold magnification objective and quantified on an Alpha Imager 2200 documentation system (Alpha Innotech, USA). […]

[4] = test system: TNF-α, IL-1β, IL-6 and TGF-β; assay: Bleomycin-induced pulmonary fibrosis: pro-inflammatory cytokines (ELISA); assay type: in vivo, mice; settings: 50 mg/kg (high-dose groups); serum (FIG. 35 legend: BALF); p<0.001
Procedure: as §1
1. Group I: control; 2. […]
The serum concentration of the pro-inflammatory cytokines (i.e. tumor necrosis factor-α (TNF-α), interleukin-6 (IL-6), and IL-1β) in serum were assessed with relevant enzyme-linked immunosorbent assay (ELISA) kits (Biosource International Inc., Sunnyvale, Calif., USA), based on the manufacturer's instructions. […]

[5] = test system: bleomycin-induced pulmonary fibrosis; assay: Bleomycin-induced pulmonary fibrosis: lung histopathology (H&E, Masson's trichrome); assay type: in vivo, mice; settings: 50 mg/kg (high-dose groups)
Procedure: as §1
1. Group I: control; 2. Group II: mice received single intraperitoneal injection of BLM (7.5 mg/kg BW) 3. Group III: single dose (ACH, 0.5 g/kg) 4. Group IV: Single dose (ACM, 1.0 g/kg) 5. […] Group VII: purified AR101-DS2 (50 mg/kg) 8. Group VIII: purified AR101-DS2 (25 mg/kg) 7. Group VII: purified AR101-DS4 (50 mg/kg) 8. Group VIII: purified AR101-DS4 (25 mg/kg) 7. […]

[6] = test system: bleomycin-induced pulmonary fibrosis; assay: Bleomycin-induced pulmonary fibrosis: hydroxyproline content in lung tissue; assay type: in vivo, mice; settings: 50 mg/kg (high-dose groups); p<0.001
Procedure: as §1
(§2) 1. Group I: control; 2. Group II: mice received single intraperitoneal injection of BLM (7.5 mg/kg BW) 3. Group III: single dose (ACH, 0.5 g/kg) 4. Group IV: Single dose (ACM, 1.0 g/kg) 5. […] Group VII: purified AR101-DS2 (50 mg/kg) 8. Group VIII: purified AR101-DS2 (25 mg/kg) 7. Group VII: purified AR101-DS4 (50 mg/kg) 8. Group VIII: purified AR101-DS4 (25 mg/kg) 7. […] Group VII: purified ARH013-RA1 (50 mg/kg) 8. Group VIII: purified ARH013-RA1 (25 mg/kg)

MPO = assay: Bleomycin-induced pulmonary fibrosis: lung myeloperoxidase (MPO) assay; assay type: in vivo, mice; settings: 50 mg/kg (high-dose groups); vs BLM group p<0.001
Procedure: as §1, §2
The lung tissues were homogenized and the MPO levels were detected with the kits according to manufacturer's instruction.

[7] = 25 mg/kg intragastric daily for 21 days after BLM
[8] = 50 mg/kg intragastric daily for 21 days after BLM
[9] = DEX 7.5 mg/kg daily for 21 days after BLM

Compound	Final body mass [1, 7]	Pulmonary mass [1, 7]	Final body mass [1, 8]	Pulmonary mass [1, 8]	Score of Inflammation [3]	Score of Steatosis Grade [3]	TNF-α, IL-1β, IL-6 and TGF-β production after BLM challenge [4]	necrosis and inflammatory infiltrating cells in the lung tissue [5]	hydroxyproline (HP) content in lung tissue [6]	lung MPO activities (MPO)	other results
C=C(CC[C@@H](C(=O)O)[C@H]1CC[C@@]2(C)C3=CC[C@H]4C(C)(C)[C@@H](O)CC[C@]4(C)C3=CC[C@]12C)C(C)C [AR101-DS4, Dehydroeburicoic Acid]	36.44 ± 0.28 g	0.52 ± 0.01 g	37.47 ± 0.22 g	0.49 ± 0.01 g							OA-induced steatosis in HepG2 cells (HepG2 cells): inhibition; Pulmonary index [1, 7]: 1.54 ± 0.04; Pulmonary index [1, 8]: 1.31 ± 0.01; renal protection effect (normalization of serum CRE and BUN) [2]: significant renal protection effect
C[C@@H]1C[C@H]2[C@@H]3CCC4=CC(=O)C=C[C@]4(C)[C@@]3(F)[C@@H](O)C[C@]2(C)[C@@]1(O)C(=O)CO [DEX, Dexamethasone, reference compound]											Final body mass [1, 9]: 38.50 ± 0.22 g; Pulmonary mass [1, 9]: 0.42 ± 0.01 g; Pulmonary index [1, 9]: 1.09 ± 0.02
Dehydrosulphurenic acid/Sulphurenic acid [AR101-DS2]					1 (1′: mild, 2 foci per 200 field) (2×) and 2 (2′: moderate, 2-4 foci per 200 field)	3 (3′: >66%) (2×) and 1 (1′: 5-33 %)	improved	significantly improved	reduced	evidently suppressed	Pulmonary index ([1]; 50 mg/kg intragastric daily for 21 days after BLM, listed as BH): significant decrease
C=C(CC[C@@H](C)[C@H]1CC[C@H]2C3=C(C(=O)C[C@]12C)[C@@]1(C)CC[C@@H](O)[C@](C)(O)[C@@H]1C[C@@H]3O)[C@@H](C)C(=O)O (racemic) [AR101-DS1, RS-Antcin K]	36.45 ± 0.28 g	0.52 ± 0.01 g	39.02 ± 0.37 g	0.46 ± 0.01 g					reduced	evidently suppressed	
C=C1C(=O)O[C@@H]2/C=C(\C)C[C@H]3C=C(CC/C=C(\C)CC[C@@H]12)C(=O)O3 [AR100-DS1, Ovatodiolide]							improved	significantly improved	reduced	evidently suppressed	
CC[C@H](C)C(=O)O[C@H]1C[C@@H](C)C=C2C=C[C@H](C)[C@H](CC[C@@H]3C[C@@H](O)CC(=O)O3)[C@H]21 [L, Lovastatin, reference compound]					1 (1′: mild, 2 foci per 200 field) and 2 (2′: moderate, 2-4 foci per 200 field)	2 (2′: 33-66%) (2×) and 0 (0′: low- to medium-power evaluation of parenchymal involvement <5%)					
